Tests used:
[1] = Cytotoxicity against MT4 cells by luciferase assay; assay type: cell-based; details: human
Hepatitis C virus = assay: Antiviral activity against HCV in Huh7-Rep cells by luciferase assay; assay type: functional, organism-based, Hepacivirus hominis
[2] = Cytotoxicity against Huh7 cells by luciferase assay; assay type: cell-based, Huh-7; details: human

## Fc1ccccc1-c1nc(Nc2ccncc2)c2nccnc2n1
[1]
  CC50: > 25 µM
Hepatitis C virus
  EC50: 9.95 µM
[2]
  CC50: > 25 µM

## COc1cnc(-c2cc(Cl)ccc2F)nc1Nc1ccncc1C(=O)NCCCN(C)C
[1]
  CC50: 5 µM
Hepatitis C virus
  EC50: 0.59 µM
[2]
  CC50: 15.8 µM

## Fc1ccc(Br)cc1-c1nc(Nc2ccccc2)c2nccnc2n1
[1]
  CC50: > 32 µM
Hepatitis C virus
  EC50: 4 µM
[2]
  CC50: > 32 µM

## FC(F)(F)c1cccc(-c2nc(Nc3ccncc3)c3nccnc3n2)c1
[1]
  CC50: > 25 µM
Hepatitis C virus
  EC50: 1.91 µM
[2]
  CC50: > 25 µM

## COc1cnc(-c2cc(Cl)ccc2F)nc1Nc1ccncc1C(=O)NC1CCN(C(=O)OC(C)(C)C)CC1
[1]
  CC50: 3.9 µM
Hepatitis C virus
  EC50: 1 µM
[2]
  CC50: 4 µM

## CCOC(=O)CNC(=O)c1cnccc1Nc1nc(-c2cc(Cl)ccc2F)ncc1OC
[1]
  CC50: > 32 µM
Hepatitis C virus
  EC50: 4.6 µM
[2]
  CC50: > 32 µM

## Fc1ccc(Br)cc1-c1nc(N(Cc2ccccc2)c2ccncc2)c2nccnc2n1
[1]
  CC50: > 32 µM
Hepatitis C virus
  EC50: 0.99 µM
[2]
  CC50: > 32 µM

## CN(c1ccncc1)c1nc(-c2cc(Br)ccc2F)nc2nccnc12
[1]
  CC50: > 32 µM
Hepatitis C virus
  EC50: 3.65 µM
[2]
  CC50: > 32 µM

## COc1cnc(-c2cc(Cl)ccc2F)nc1Nc1ccncc1C(=O)NCCCn1ccnc1
[1]
  CC50: 8.1 µM
Hepatitis C virus
  EC50: 0.92 µM
[2]
  CC50: 15.3 µM

## CCCCN(c1ccncc1)c1nc(-c2cc(Br)ccc2F)nc2nccnc12
[1]
  CC50: > 32 µM
Hepatitis C virus
  EC50: 2.2 µM
[2]
  CC50: > 32 µM

## CCc1cnccc1Nc1nc(-c2cc(Cl)ccc2F)nc2nccnc12
[1]
  CC50: > 32 µM
Hepatitis C virus
  EC50: 0.71 µM
[2]
  CC50: > 32 µM

## COc1cnc(-c2cc(Cl)ccc2F)nc1Nc1ccncc1C(=O)NCCCN1CCCCC1C (stereo not given)
[1]
  CC50: 3.3 µM
Hepatitis C virus
  EC50: 0.55 µM
[2]
  CC50: 3.6 µM

## Cc1cc(Nc2nc(-c3cc(Br)ccc3F)nc3nccnc23)ccn1
[1]
  CC50: 13.2 µM
Hepatitis C virus
  EC50: 3.6 µM
[2]
  CC50: 12.9 µM

## COc1cnc(-c2cc(Cl)ccc2F)nc1Nc1ccncc1C(=O)NCCNCCO
[1]
  CC50: > 32 µM
Hepatitis C virus
  EC50: 0.85 µM
[2]
  CC50: > 32 µM

## COc1cnc(-c2cc(Cl)ccc2F)nc1Nc1ccncc1C(=O)NCCNCC(C)O (stereo not given)
[1]
  CC50: > 32 µM
Hepatitis C virus
  EC50: 9.6 µM
[2]
  CC50: > 32 µM
